# Measured values as given in ChEMBL document CHEMBL1201862, “PubChem BioAssay data set” (2004).
#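 96-well plates; 48 h exposure; 5 concentrations. Endpoints by linear interpolation between flanking doses. Not reached: highest tested concentration assigned. Here, GI50 denotes the concentration required for 50% inhibition of growth.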 Calls of active or inactive are those of the source. No stated cut-off is given here; in the data, active = GI50 up to about 1.1 µM and inactive = higher.
# Assays:
# Assay in all cases: NCI anticancer screen, dose series, 48 h
# 786-0 = system: 786-0
# A498 = system: A498
# A549 = system: A549
# ACHN = system: ACHN
# BT-549 = system: BT-549
# CAKI-1 = system: CAKI-1
# CCRF-CEM = system: CCRF-CEM
# COLO 205 = system: COLO 205
# DU-145 = system: DU-145
# EKVX = system: EKVX
# HCC 2998 = system: HCC 2998
# HCT-116 = system: HCT-116
# HCT-15 = system: HCT-15
# HL-60 = system: HL-60
# HOP-62 = system: HOP-62
# HOP-92 = system: HOP-92
# HT-29 = system: HT-29
# Hs-578T = system: Hs-578T
# IGROV-1 = system: IGROV-1
# K562 = system: K562
# KM12 = system: KM12
# LOX IMVI = system: LOX IMVI
# M14 = system: M14
# MCF7 = system: MCF7
# MDA-MB-231 = system: MDA-MB-231
# MDA-MB-435 = system: MDA-MB-435
# MDA-N = system: MDA-N
# MOLT-4 = system: MOLT-4
# Malme-3M = system: Malme-3M
# NCI-H226 = system: NCI-H226
# NCI-H23 = system: NCI-H23
# NCI-H460 = system: NCI-H460
# NCI-H522 = system: NCI-H522
# OVCAR-3 = system: OVCAR-3
# OVCAR-4 = system: OVCAR-4
# OVCAR-5 = system: OVCAR-5
# OVCAR-8 = system: OVCAR-8
# PC-3 = system: PC-3
# RPMI-8226 = system: RPMI-8226
# SF-268 = system: SF-268
# SF-295 = system: SF-295
# SF-539 = system: SF-539
# SK-MEL-28 = system: SK-MEL-28
# SK-MEL-2 = system: SK-MEL-2
# SK-MEL-5 = system: SK-MEL-5
# SK-OV-3 = system: SK-OV-3
# SN12C = system: SN12C
# SNB-19 = system: SNB-19
# SNB-75 = system: SNB-75
# SR = system: SR
# SW-620 = system: SW-620
# T47D = system: T47D
# TK-10 = system: TK-10
# U-251 = system: U-251
# UACC-257 = system: UACC-257
# UACC-62 = system: UACC-62
# NCI/ADR-RES = system: NCI/ADR-RES
# RXF 393 = system: RXF 393
# UO-31 = system: UO-31
smiles,measurement,setting,value
O=C(C#Cc1ccccc1)N1CCCCC1,GI50,786-0,14.4 µM (inactive)
same,GI50,A498,> 100 µM (inactive)
same,GI50,A549,76.9 µM (inactive)
same,GI50,ACHN,58.1 µM (inactive)
same,GI50,BT-549,> 100 µM (inactive)
same,GI50,CAKI-1,83.9 µM (inactive)
same,GI50,CCRF-CEM,50.8 µM (inactive)
same,GI50,COLO 205,> 100 µM (inactive)
same,GI50,DU-145,55.8 µM (inactive)
same,GI50,EKVX,63.2 µM (inactive)
same,GI50,HCC 2998,84.7 µM (inactive)
same,GI50,HCT-116,16.8 µM (inactive)
same,GI50,HCT-15,49.9 µM
same,GI50,HL-60,21.9 µM (inactive)
same,GI50,HOP-62,> 100 µM (inactive)
same,GI50,HOP-92,> 100 µM (inactive)
same,GI50,HT-29,29 µM (inactive)
same,GI50,Hs-578T,> 100 µM (inactive)
same,GI50,IGROV-1,65 µM (inactive)
same,GI50,K562,73.6 µM (inactive)
same,GI50,KM12,> 100 µM (inactive)
same,GI50,LOX IMVI,48.9 µM (inactive)
same,GI50,M14,84.1 µM (inactive)
same,GI50,MCF7,44.4 µM (inactive)
same,GI50,MDA-MB-231,72.3 µM (inactive)
same,GI50,MDA-MB-435,63.5 µM (inactive)
same,GI50,MDA-N,86.5 µM (inactive)
same,GI50,MOLT-4,> 100 µM (inactive)
same,GI50,Malme-3M,40 µM (inactive)
same,GI50,NCI-H226,> 100 µM (inactive)
same,GI50,NCI-H23,45.3 µM (inactive)
same,GI50,NCI-H460,44.6 µM (inactive)
same,GI50,NCI-H522,> 100 µM (inactive)
same,GI50,OVCAR-3,81.7 µM (inactive)
same,GI50,OVCAR-4,80 µM (inactive)
same,GI50,OVCAR-5,> 100 µM (inactive)
same,GI50,OVCAR-8,48.6 µM (inactive)
same,GI50,PC-3,77.4 µM (inactive)
same,GI50,RPMI-8226,62.5 µM (inactive)
same,GI50,SF-268,90.2 µM (inactive)
same,GI50,SF-295,> 100 µM (inactive)
same,GI50,SF-539,> 100 µM (inactive)
same,GI50,SK-MEL-28,> 100 µM (inactive)
same,GI50,SK-MEL-2,> 100 µM (inactive)
same,GI50,SK-MEL-5,56.4 µM (inactive)
same,GI50,SK-OV-3,> 100 µM (inactive)
same,GI50,SN12C,> 100 µM (inactive)
same,GI50,SNB-19,> 100 µM (inactive)
same,GI50,SNB-75,> 100 µM (inactive)
same,GI50,SR,80.4 µM (inactive)
same,GI50,SW-620,97.9 µM (inactive)
same,GI50,T47D,52.6 µM (inactive)
same,GI50,TK-10,> 100 µM (inactive)
same,GI50,U-251,84.1 µM (inactive)
same,GI50,UACC-257,> 100 µM (inactive)
same,GI50,UACC-62,> 100 µM (inactive)
CC(C)=CCC/C(C)=C/CC/C(C)=C/CC/C(C)=C/C=C/C=C(\C)CC/C=C(\C)CC/C=C(\C)CCC=C(C)C,GI50,786-0,22.2 µM (inactive)
same,GI50,A498,> 100 µM (inactive)
same,GI50,A549,60 µM (inactive)
same,GI50,ACHN,31.5 µM (inactive)
same,GI50,BT-549,> 100 µM (inactive)
same,GI50,CAKI-1,16.8 µM (inactive)
same,GI50,CCRF-CEM,24.6 µM (inactive)
same,GI50,COLO 205,> 100 µM (inactive)
same,GI50,DU-145,> 56.9 µM (inactive)
same,GI50,EKVX,32.3 µM (inactive)
same,GI50,HCC 2998,> 100 µM (inactive)
same,GI50,HCT-116,> 92.5 µM (inactive)
same,GI50,HCT-15,> 100 µM
same,GI50,HL-60,3.02 µM (inactive)
same,GI50,HOP-62,72.6 µM (inactive)
same,GI50,HOP-92,45.5 µM (inactive)
same,GI50,HT-29,> 100 µM (inactive)
same,GI50,Hs-578T,> 82.6 µM (inactive)
same,GI50,IGROV-1,17.5 µM (inactive)
same,GI50,K562,17.2 µM (inactive)
same,GI50,KM12,31.8 µM (inactive)
same,GI50,LOX IMVI,21.2 µM (inactive)
same,GI50,M14,> 100 µM (inactive)
same,GI50,MCF7,44.2 µM (inactive)
same,GI50,MDA-MB-231,> 70.5 µM (inactive)
same,GI50,MDA-MB-435,> 76.6 µM (inactive)
same,GI50,MDA-N,> 68.5 µM (inactive)
same,GI50,MOLT-4,19.7 µM (inactive)
same,GI50,Malme-3M,> 77.1 µM (inactive)
same,GI50,NCI-H226,> 100 µM (inactive)
same,GI50,NCI-H23,68.2 µM (inactive)
same,GI50,NCI-H460,34.8 µM (inactive)
same,GI50,NCI-H522,14.8 µM (inactive)
same,GI50,NCI/ADR-RES,50.7 µM (inactive)
same,GI50,OVCAR-3,> 100 µM (inactive)
same,GI50,OVCAR-4,> 57.4 µM (inactive)
same,GI50,OVCAR-5,> 100 µM (inactive)
same,GI50,OVCAR-8,> 63 µM (inactive)
same,GI50,PC-3,> 81.5 µM (inactive)
same,GI50,RPMI-8226,38.4 µM (inactive)
same,GI50,RXF 393,> 100 µM (inactive)
same,GI50,SF-268,> 58.7 µM (inactive)
same,GI50,SF-295,> 100 µM (inactive)
same,GI50,SF-539,> 100 µM (inactive)
same,GI50,SK-MEL-28,> 100 µM (inactive)
same,GI50,SK-MEL-2,> 100 µM (inactive)
same,GI50,SK-MEL-5,44.1 µM (inactive)
same,GI50,SK-OV-3,> 100 µM (inactive)
same,GI50,SN12C,> 39.4 µM (inactive)
same,GI50,SNB-19,> 100 µM (inactive)
same,GI50,SNB-75,> 71.6 µM (inactive)
same,GI50,SW-620,> 100 µM (inactive)
same,GI50,T47D,72.1 µM (inactive)
same,GI50,TK-10,> 58.7 µM (inactive)
same,GI50,U-251,63.7 µM (inactive)
same,GI50,UACC-257,> 100 µM (inactive)
same,GI50,UACC-62,> 100 µM (inactive)
same,GI50,UO-31,25.3 µM (inactive)
